Experiments:
[1] = system: antibodies in sera from SARS patients (sera 1a, 1b, 2, 6, 37, 62, London, SARS-yellow, SARS-green); type: binding, human; set-up: Binding of serum 6 to linear peptides of protein X1 of SARS-CoV Urbani / Binding of serum 37 to linear peptides of protein X1 of SARS-CoV Urbani / Binding of serum 6 to looped/cyclic peptide (PEPSCAN-ELISA) / Binding of serum 37 to looped/cyclic peptide (PEPSCAN-ELISA) / Binding of serum 37 to looped/cyclic peptides of protein X1 of SARS-CoV Urbani / Binding of serum 6 to linear peptides of protein X2 / Binding of serum 37 to linear peptides of protein X2 / Binding of serum 37 to looped/cyclic peptides of protein X2 of SARS-CoV Urbani / Binding of serum 6 to linear peptides of protein M of SARS-CoV Urbani / Binding of serum 37 to linear peptides of protein M of SARS-CoV Urbani / Binding of serum 6 to looped/cyclic peptides of protein M of SARS-CoV Urbani / Binding of serum 37 to looped/cyclic peptides of protein M of SARS-CoV Urbani / Binding of serum 6 to linear peptides of protein X3 of SARS-CoV Urbani / Binding of serum 37 to linear peptides of protein X3 of SARS-CoV Urbani / Binding of serum 37 to looped/cyclic peptides of protein X3 of SARS-CoV Urbani / Binding of serum 6 to linear peptides of protein X4 of SARS-CoV Urbani / Binding of serum 37 to linear peptides of protein X4 of SARS-CoV Urbani / Binding of serum 37 to looped/cyclic peptides of protein X4 of SARS-CoV Urbani / Binding of serum 6 to linear peptides of protein X5 of SARS-CoV Urbani / Binding of serum 37 to linear peptides of protein X5 of SARS-CoV Urbani / Binding of serum 37 to looped/cyclic peptides of protein X5 of SARS-CoV Urbani / Binding of serum 6 to linear peptides of protein N of SARS-CoV Urbani / Binding of serum 37 to linear peptides of protein N of SARS-CoV Urbani / Binding of serum 6 to linear peptide (PEPSCAN-ELISA) / Binding of serum 1a to looped/cyclic peptides of protein N of SARS-CoV Urbani / Binding of serum 1b to looped/cyclic peptides of protein N of SARS-CoV Urbani / Binding of serum 2 to looped/cyclic peptides of protein N of SARS-CoV Urbani / Binding of serum 6 to looped/cyclic peptides of protein N of SARS-CoV Urbani / Binding of serum 37 to looped/cyclic peptides of protein N of SARS-CoV Urbani / Binding of serum 62 to looped/cyclic peptides of protein N of SARS-CoV Urbani / Binding of serum London to looped/cyclic peptides of protein N of SARS-CoV Urbani / Binding of serum SARS-green to looped/cyclic peptides of protein N of SARS-CoV Urbani: unit not given here
[2] = system: control sera (pooled serum of ten healthy LUMC hospital workers; commercial negative donor pooled serum from the Dutch bloodbank); type: binding, human; set-up: Binding of Control serum LUMC to linear peptides / Binding of Control serum Blood-bank to linear peptides / Binding of Control serum LUMC to looped peptides / Binding of Control Serum Blood-Bank to Looped peptides / Binding of Control serum LUMC to linear peptides of the protein M of SARS-CoV Urbani / Binding of Control serum Blood-bank to linear peptides of the protein M of SARS-CoV Urbani / Binding of Control serum LUMC to looped peptides of the protein M of SARS-CoV Urbani / Binding of Control Serum Blood-Bank to Looped peptides of the protein M of SARS-CoV Urbani: unit not given here
[3] = system: rabbit serum obtained by immunizing a rabbit with the SARS-CoV strain Frankfurt 1; type: binding; set-up: Binding of a rabbit serum to linear peptides / Binding of a rabbit serum to looped peptides / Rabbit serum linear peptides / Rabbit serum looped peptides / Binding of a rabbit serum to linear peptides of protein N of SARS-CoV Urbani (Rabbit serum linear peptides) / Binding of a rabbit serum to looped/cyclic peptides of protein N of SARS-CoV Urbani (Rabbit serum looped peptides): unit not given here
[4] = system: recombinant human anti-SARS-CoV antibody 03-018; type: binding; set-up: Binding of antibody 03-018 to linear peptides of the N protein of SARS-CoV Urbani / Binding of antibody 03-018 to looped/cyclic peptides of the N protein of SARS-CoV Urbani: unit not given here

Sequence | Binding of serum 1a to linear peptide (PEPSCAN-ELISA) [1] | Binding of serum 1a to looped/cyclic peptides of protein N of SARS-CoV Urbani [1] | Binding of serum 1b to linear peptide (PEPSCAN-ELISA) [1] | Binding of serum 1b to looped/cyclic peptides of protein N of SARS-CoV Urbani [1] | Binding of serum 2 to linear peptide (PEPSCAN-ELISA) [1] | Binding of serum 2 to looped/cyclic peptides of protein N of SARS-CoV Urbani [1] | Binding of serum 6 to linear peptide (PEPSCAN-ELISA) [1] | Binding of serum 6 to looped/cyclic peptides of protein N of SARS-CoV Urbani [1] | Binding of serum 37 to linear peptide (PEPSCAN-ELISA) [1] | Binding of serum 37 to looped/cyclic peptides of protein N of SARS-CoV Urbani [1] | Binding of serum 62 to linear peptide (PEPSCAN-ELISA) [1] | Binding of serum 62 to looped/cyclic peptides of protein N of SARS-CoV Urbani [1] | Binding of serum London to linear peptide (PEPSCAN-ELISA) [1] | Binding of serum London to looped/cyclic peptides of protein N of SARS-CoV Urbani [1] | Binding of serum SARS-green to linear peptide (PEPSCAN-ELISA) [1] | Binding of serum SARS-green to looped/cyclic peptides of protein N of SARS-CoV Urbani [1] | Binding of serum SARS-yellow to linear peptide (PEPSCAN-ELISA) [1] | Binding of serum SARS-yellow to looped/cyclic peptides of protein N of SARS-CoV Urbani [1] | Binding of Control Serum Blood-Bank to Looped peptides [2] | Binding of Control serum Blood-bank to linear peptides [2] | other results
GKGQQQQGQTVTKKS | 0.3 | 1.4 | 0.1 | 0.6 | 0.3 | 0.7 | 0.3 | 0.4 | 0.7 | 0.5 | 0.7 | 0.6 | 0.5 | 0.4 | 0.2 | 0.6 | 0.7 | 0.5 | 0.6 | 0.9 | Binding of Control serum LUMC to linear peptides [2]: 1.0; Binding of Control serum LUMC to looped peptides [2]: 0.7; Binding of a rabbit serum to linear peptides of protein N of SARS-CoV Urbani (Rabbit serum linear peptides) [3]: 0.2; Binding of a rabbit serum to looped/cyclic peptides of protein N of SARS-CoV Urbani (Rabbit serum looped peptides) [3]: 0.4; Binding of antibody 03-018 to linear peptides of the N protein of SARS-CoV Urbani [4]: 0.1; Binding of antibody 03-018 to looped/cyclic peptides of the N protein of SARS-CoV Urbani [4]: 0.2
FGDQDLIRQGTDYKH | 0.3 | 0.4 | 0.2 | 0.3 | 0.2 | 0.4 | 0.2 | 0.2 | 0.7 | 0.7 | 0.7 | 0.6 | 0.6 | 0.4 | 0.7 | 0.7 | 0.6 | 0.5 | 0.6 | 0.8 | Binding of Control serum LUMC to linear peptides [2]: 0.7; Binding of Control serum LUMC to looped peptides [2]: 0.7; Binding of a rabbit serum to linear peptides of protein N of SARS-CoV Urbani (Rabbit serum linear peptides) [3]: 0.1; Binding of a rabbit serum to looped/cyclic peptides of protein N of SARS-CoV Urbani (Rabbit serum looped peptides) [3]: 0.5; Binding of antibody 03-018 to linear peptides of the N protein of SARS-CoV Urbani [4]: 0.1; Binding of antibody 03-018 to looped/cyclic peptides of the N protein of SARS-CoV Urbani [4]: 0.2

From US20070128217A1 (priority 2003, published 2007)
